This passage reports Emax and EC50 results from patent US20250263404A1, “AMINOPYRIDINES AS ACTIVATORS OF PI3 KINASE” (UCL Business Ltd, priority 2021, published 2025).

In the assay the target is PI3Kα (Homo sapiens, UniProt P42336). Put plainly: pAKT S473 ELISA in A549 cells (PI3Kα activation). In kind it is cell-based. Also on record: endogenous in cells; host or cells: A549. The conditions noted are these: for Emax at 10 µM: A549, 0.25 h, read-out: <50% response at 10 μM; for EC50: A549 cells, 15 min treatment, pAKT S473 ELISA, normalised to Emax of 1 μM insulin, read-out: Av EC50. How it is done:
EC50 values were determined by quantifying phosphorylation on S473 residues of Akt in A549 human adenocarcinoma cells by ELISA (enzyme linked immunoadsorbent assay, R&D Systems, DYC887BE). A549 cells were seeded into 96-well plates (50,000 cells/well) in DMEM supplemented with 10% foetal bovine serum and 1% penicillin-streptomyocin. Following 24 h in culture cells were starved for 24 h in serum-free DMEM before 15 minute treatment with a concentration response curve of compounds. Experimental compounds were diluted in DMSO into […] 1:3 concentration response curves in polypropylene V-bottom plates (SLS MIC9050). Concentration response curves were diluted to a 3× stock in serum-free DMEM. Standard 8-point concentration response curves were performed at 50, 16.7, 5.6, 1.9, 0.6, 0.2, 0.07, 0.02 μM and serum-free DMEM containing 0.5% DMSO was used as a negative control. […] A549 cells were seeded at 50,000 cells per well in 96-well plates in DMEM (10% FBS+1% P/S). The next day cells were washed once with PBS before addition of serum-free DMEM for 24 h. On the day of treatment cells, were incubated in fresh serum-free DMEM prior to treatment. Compounds solubilised to 10 mM in DMSO were diluted 1:3 in an 8-point concentration response curve in DMSO. Concentration response curves were diluted in serum-free DMEM by transfer into intermediate plates using a BRAVO liquid handler (Agilent). Intermediate plates were then used to treat cell plates using the BRAVO liquid handler. Compound concentration response curves had atop concentration of 50 μM and a final well concentration of 0.5% DMSO. Cell plates were treated for 15 min at 37° C., 5% CO2 before being washed with ice-cold PBS and lysed in lysis buffer 6 (R&D Systems #895561) and freezing at −80° C. Levels of pAKT-S473 were determined using the phospho-AKT (S473) pan-specific Duoset IC ELISA (R&D Systems #DYC887BE) in 96-well white high-binding plates (Corning #3922) according to manufacturer's instructions. Endpoint luminescence was measured using a Sense (Hidex) platereader. […] Data were transformed and EC50 data were determined by variable slope (4 parameters) non-linear regression using Prism 7 (Graphpad).

Chain of PI3Kα (P42336 whole entry): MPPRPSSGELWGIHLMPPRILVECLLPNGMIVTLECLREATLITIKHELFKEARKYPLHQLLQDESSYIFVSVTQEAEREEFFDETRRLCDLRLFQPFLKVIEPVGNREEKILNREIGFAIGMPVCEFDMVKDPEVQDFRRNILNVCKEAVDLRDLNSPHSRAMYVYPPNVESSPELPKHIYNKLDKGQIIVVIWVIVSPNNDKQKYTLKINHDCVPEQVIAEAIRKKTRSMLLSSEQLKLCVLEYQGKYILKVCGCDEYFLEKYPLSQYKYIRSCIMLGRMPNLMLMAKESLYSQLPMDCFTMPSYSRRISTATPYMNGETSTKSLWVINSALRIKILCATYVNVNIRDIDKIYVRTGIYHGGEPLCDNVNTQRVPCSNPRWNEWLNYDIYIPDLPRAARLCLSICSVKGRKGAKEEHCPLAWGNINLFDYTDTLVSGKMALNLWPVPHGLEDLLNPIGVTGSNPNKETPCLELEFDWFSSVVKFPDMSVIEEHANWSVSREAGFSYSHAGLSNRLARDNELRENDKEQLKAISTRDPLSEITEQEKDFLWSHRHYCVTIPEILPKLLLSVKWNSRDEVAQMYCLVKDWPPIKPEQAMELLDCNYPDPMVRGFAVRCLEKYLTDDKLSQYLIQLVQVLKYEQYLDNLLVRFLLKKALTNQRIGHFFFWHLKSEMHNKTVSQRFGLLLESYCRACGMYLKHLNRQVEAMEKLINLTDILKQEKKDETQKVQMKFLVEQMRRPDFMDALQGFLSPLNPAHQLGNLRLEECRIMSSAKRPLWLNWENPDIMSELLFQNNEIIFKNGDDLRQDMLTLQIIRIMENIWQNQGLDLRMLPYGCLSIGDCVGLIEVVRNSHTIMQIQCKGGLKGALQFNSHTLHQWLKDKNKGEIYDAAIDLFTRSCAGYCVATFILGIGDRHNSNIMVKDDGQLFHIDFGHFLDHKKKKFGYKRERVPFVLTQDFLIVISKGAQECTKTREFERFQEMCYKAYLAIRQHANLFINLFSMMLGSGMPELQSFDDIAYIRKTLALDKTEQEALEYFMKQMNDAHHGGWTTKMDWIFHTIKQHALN
Chain of PI3Kα (P27986 whole entry partner): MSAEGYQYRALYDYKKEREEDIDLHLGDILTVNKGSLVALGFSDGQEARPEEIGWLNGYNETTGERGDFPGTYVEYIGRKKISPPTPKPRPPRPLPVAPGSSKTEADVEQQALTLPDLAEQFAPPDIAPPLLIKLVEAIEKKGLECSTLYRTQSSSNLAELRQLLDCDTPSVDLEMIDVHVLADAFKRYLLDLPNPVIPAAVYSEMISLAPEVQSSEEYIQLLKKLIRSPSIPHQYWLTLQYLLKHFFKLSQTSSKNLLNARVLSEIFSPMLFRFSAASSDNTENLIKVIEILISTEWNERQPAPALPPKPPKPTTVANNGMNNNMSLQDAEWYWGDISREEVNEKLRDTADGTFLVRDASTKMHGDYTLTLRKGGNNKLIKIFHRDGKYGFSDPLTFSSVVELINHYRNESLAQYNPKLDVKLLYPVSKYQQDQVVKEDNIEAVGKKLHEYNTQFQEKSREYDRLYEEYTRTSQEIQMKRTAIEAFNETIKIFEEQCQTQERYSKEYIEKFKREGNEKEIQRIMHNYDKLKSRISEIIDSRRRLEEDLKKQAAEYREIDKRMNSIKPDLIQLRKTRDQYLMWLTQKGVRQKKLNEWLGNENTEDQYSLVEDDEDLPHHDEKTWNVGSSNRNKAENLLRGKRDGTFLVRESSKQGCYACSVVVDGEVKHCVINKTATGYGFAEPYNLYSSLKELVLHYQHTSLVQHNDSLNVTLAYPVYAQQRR

Regarding `COc1cc(N2CCN(C)CC2)ccc1Nc1cc(Nc2cccc3[nH]ccc23)ccn1` [63 (2057)], the Emax at 10 µM was < 50% and the EC50 was > 50 µM.

On to `CC(=O)N1CCc2cccc(Nc3ccnc(Nc4cc5ccccc5cn4)c3)c21` [44 (2021)], for which the EC50 is > 50 µM.

As for `CNC(=O)c1cccc(Nc2ccnc(Nc3ccc4c(c3)CCN4C(C)=O)c2)c1` [86 (2111)], the Emax at 10 µM was < 50% and the EC50 is > 29 µM.

As to `CCN1CCN(c2ccc(Nc3cc(Nc4ccc(C(=O)NC)cc4)ccn3)cc2)CC1` [79 (2105)], the EC50 amounted to 8.31 µM. For `CC(=O)N1CCc2cccc(Nc3ccnc(Nc4ccc5ccccc5n4)c3)c21` [43 (2020)], the EC50 is > 50 µM. Consider `COc1cc(N2CCN(C)CC2)ccc1Nc1cc(Nc2ccc3c(c2)CCN3C(C)=O)ccn1` [24 (1989)], for which the EC50 was determined as 1.25 µM. With `CC(=O)N1CCc2cccc(Nc3ccnc(Nc4cc(-c5ccccc5)nn4C)c3)c21` [46 (2023)], the EC50 is > 50 µM. Regarding `CC(=O)N1CCc2cccc(Nc3ccnc(Nc4ccc(Oc5ccccc5)cc4)c3)c21` [36 (2013)], the EC50 came to 8.81 µM. `COc1cc(Nc2cc(Nc3ccccc3)ccn2)cc(OC)c1OC` [1 (1902)]: the EC50 was ≥ 50 µM. `CC(=O)N1CCc2cccc(Nc3ccnc(Nc4ccnc5ccccc45)c3)c21` [98 (2355)]: the EC50 is > 50 µM. As for `COc1cc(Nc2cc(Nc3cnn(C)c3)ccn2)cc(OC)c1OC` [4 (1905)], the Emax at 10 µM was < 50% and the EC50 was determined as 2.08 µM. Take `COc1cc(N2CCN(C)CC2)ccc1Nc1cc(Nc2cccc(NS(C)(=O)=O)c2)ccn1` [60 (2054)]: the EC50 was found to be 2.51 µM. On the same count and under the same terms, the figure for `COc1cc(N2CCN(C)CC2)ccc1Nc1cc(Nc2cccc3c2N(C(C)=O)CC3)ccn1` [R4 (1889)] is 2.55 µM.

Turning to `CC(=O)N1CCc2cccc(Nc3ccnc(Nc4nn(C)c5ccccc45)c3)c21` [48 (2027)], the Emax at 10 µM is < 50% and the EC50 is 1.48 µM. The matching figures for `COc1ccccc1Nc1cc(Nc2cccc3c2N(C(C)=O)CC3)ccn1` [99 (2356)]: < 50% and 4.78 µM.

Consider `CC(=O)N1CCc2cccc(Nc3ccnc(Nc4ccc(N5CCN(C)CC5)cc4OC(C)C)c3)c21` [32 (2008)], for which the EC50 turned out to be 1.46 µM. In the case of `COc1cc(C#N)ccc1Nc1cc(Nc2cccc3c2N(C(C)=O)CC3)ccn1` [100 (2357)], the EC50 was > 50 µM. `COCCN1CCN(c2ccc(Nc3cc(Nc4cccc5c4N(C(C)=O)CC5)ccn3)c(OC)c2)CC1` [27 (1994)]: the concentration giving a half-maximal response (EC50) turned out to be 1.3 µM. On to `COc1cc(N2CCN(C)CC2)ccc1Nc1cc(Nc2cccc3c2N(C(C)=O)CC3)cc(C)n1` [10 (1936)], for which the Emax at 10 µM was < 50% and the EC50 is 5.36 µM. Consider `COc1cc(N2CCN(C)CC2)ccc1Nc1cc(Nc2ccn(C)n2)ccn1` [3 (1904)], for which the EC50 is 9.71 µM. Take `CC(=O)N1CCc2cccc(Nc3ccnc(Nc4ccc(C(=O)N(C)C)cc4)c3)c21` [75 (2101)]: the Emax at 10 µM is < 50% and the EC50 was > 19 µM. As to `CC(=O)N1CCc2cccc(Nc3ccnc(Nc4cccc5ncccc45)c3)c21` [68 (2067)], the concentration giving a half-maximal response (EC50) came to 4 µM.

On to `CC(=O)N1CCc2cc(Nc3cc(Nc4cc(C(C)C)nn4C)ccn3)ccc21` [85 (2110)], for which the Emax at 10 µM is < 50% and the concentration for a half-maximal effect (EC50) was > 27.2 µM. On to `CCN1CCN(c2ccc(Nc3cc(Nc4cccc(C(=O)NC)c4)ccn3)cc2)CC1` [78 (2104)], for which the EC50 was 1.98 µM. In the case of `CNC(=O)c1ccc(Nc2ccnc(Nc3ccc(N4CCN(C)CC4)cc3OC)c2)cc1` [61 (2055)], the EC50 stood at 2.61 µM. With `CCOc1cc(N2CCN(C)CC2)ccc1Nc1cc(Nc2cccc3c2N(C(C)=O)CC3)ccn1` [31 (2007)], the EC50 was found to be 1.55 µM. `CC(=O)N1CCc2cccc(Nc3ccnc(Nc4cccc5ccncc45)c3)c21` [71 (2071)]: the Emax at 10 µM is < 50% and the EC50 came to 6.54 µM. `CC(=O)N1CCc2cccc(Nc3ccnc(Nc4cccc(NS(C)(=O)=O)c4)c3)c21` [101 (2358)]: the EC50 is > 50 µM. As for `CC(=O)N1CCc2cccc(Nc3ccnc(Nc4ccc(N5CCOCC5)cc4C)c3)c21` [94 (2350)], the EC50 was 4.56 µM. Same read-out and setting: in the case of `COc1cc(N2CCN(C)CC2)ccc1Nc1cc(Nc2cccc(-n3ccnc3)c2)ccn1` [65 (2063)] it was 1.53 µM; in that of `CC(=O)N1CCc2cccc(Nc3ccnc(Nc4ccccc4)c3)c21` [39 (2016)], > 50 µM. Regarding `COc1cc(N2CCN(C)CC2)ccc1Nc1cc(Nc2cccc(-n3cnnc3)c2)ccn1` [66 (2064)], the EC50 was 17.3 µM.

For `COc1cc(N2CCN(C)CC2)ccc1Nc1cc(Nc2cccc3c2N(C(=O)C(C)C)CC3)ccn1` [15 (1943)], the EC50 came out at 2.39 µM. With `COc1cc(Nc2cc(Nc3ccn(C)n3)ccn2)cc(OC)c1OC` [2 (1903)], the EC50 was ≥ 50 µM. Still for that read-out and setting: in the case of `CNC(=O)c1cccc(Nc2ccnc(Nc3ccc(N4CCN(C)CC4)cc3OC)c2)c1` [58 (2049)] it was 1.35 µM.

Consider `CC(=O)N1CCc2cc(Nc3cc(Nc4cccc(S(C)(=O)=O)c4)ccn3)ccc21` [88 (2115)], for which the Emax at 10 µM is < 50% and the EC50 was > 50 µM. The like results for `COc1cc(N2CCN(C)CC2)ccc1Nc1cc(Nc2cccc(-c3ccccn3)c2)ccn1` [59 (2052)] were, in that order, < 50% and 0.55 µM. Consider `CNC(=O)c1ccc(Nc2ccnc(Nc3ccc4c(c3)CCN4C(C)=O)c2)cc1` [87 (2112)], for which the Emax at 10 µM was < 50% and the EC50 is > 27 µM.

`COc1cc(N2CCOCC2)ccc1Nc1cc(Nc2cccc3c2N(C(C)=O)CC3)ccn1` [7 (1912)]: the Emax at 10 µM was < 50% and the EC50 was found to be 0.54 µM. `CC(=O)N1CCc2cccc(Nc3ccnc(Nc4cccc(S(C)(=O)=O)c4)c3)c21` [102 (2359)]: the EC50 was > 50 µM.

With `COc1cc(N2CCN(C3CC3)CC2)ccc1Nc1cc(Nc2cccc3c2N(C(C)=O)CC3)ccn1` [97 (2354)], the EC50 was found to be 0.97 µM.

For the compound `CC(=O)N1CCc2cccc(Nc3ccnc(Nc4ccc5ncccc5c4)c3)c21` [49 (2028)], the Emax at 10 µM is < 50% and the EC50 amounted to 0.44 µM.

`COc1cc(Nc2cc(Nc3ccc4c(c3)CCN4C(C)=O)ccn2)cc(OC)c1OC` [5 (1906)]: the Emax at 10 µM was < 50% and the EC50 amounted to 0.44 µM.

Turning to `COc1ccc(Nc2ccnc(Nc3ccc(N4CCN(C)CC4)cc3OC)c2)cc1NC(C)=O` [56 (2046)], the EC50 came to 1.28 µM. Same read-out and setting: the figure for `COc1cc(N2CCN(C)CC2)ccc1Nc1cc(Nc2ccncc2)ccn1` [55 (2045)] is > 6.12 µM. Turning to `CC(=O)N1CCc2cccc(Nc3ccnc(-c4cnn(C5CCNCC5)c4)c3)c21` [R5 (1962)], the Emax at 10 µM is < 50% and the EC50 came out at 0.59 µM. The matching figures for `COc1cc(N2CCN(C)CC2)ccc1Nc1cc(-c2cccc(C(=O)N(C)C)c2)ccn1` [103 (1940)]: < 50% and > 50 µM. As to `CC(=O)N1CCc2cccc(Nc3ccnc(Nc4ccc(N5CCN(C)CC5)cc4C(F)(F)F)c3)c21` [25 (1992)], the EC50 is > 50 µM. Still for that read-out and setting: the figure for `CC(=O)N1CCc2cc(Nc3cc(Nc4cccc5c4N(C(C)=O)CC5)ccn3)ccc21` [72 (2072)] is 1.08 µM.
